# Measured values taken from patent US12655472B2, “Microbe detection method using fish analysis” (priority 2020, dated 2026).
# Columns and labels:
# E. coli K-12 = assay: Antibiotic susceptibility evaluation through FISH analysis (ratio of test microorganisms after about 1 hour culturing); type: cell-based
# Method: (§1) In this example, a total of two experiments were conducted on each of E. coli K-12 bacteria as test microorganisms having antibiotic susceptibility, and E. coli ER7 bacteria as test microorganisms having antibiotic resistance, and each group was set to include E. faecalis bacteria having resistance to Cefotaxime.
# (§2) The number or ratio of initial microorganisms in the first microbial group, the second microbial group, and the third microbial group was set identically.
# (§3) In an embodiment, E. coli K-12 bacteria, antibiotic-resistant E. coli ER7 bacteria, and E. faecalis resistant to cefotaxime were used, and each strain was cultured up to OD 600=0.5 to obtain a sample containing the test microorganisms. On the other hand, after treating the sample with antibiotics, the amount of the test microorganisms was quantified by imaging at OD 600. In this case, the imaging process was performed by centrifugation at 3,000 g for 3 min, concentrating the sample 10-fold and fixing the same on a glass substrate coated with Vectabond.
# (§4) To fix bacterial samples, a 50:1 solution of acetone and Vectabond was dropped onto a sample dish. Next, the sample dish was incubated at room temperature for 5 minutes, and washed 2 to 3 times with tertiary water, and then the water was completely removed therefrom. Thereafter, the test microorganisms samples of Example 6 were dropped on the coated sample dish, and incubated at room temperature for 30 minutes, and the remaining sample was washed three times. Next, a 3.7% formaldehyde solution was dropped on the sample dish on which the sample was fixed, and then the fixation was performed for 30 minutes at room temperature. Afterwards, it was washed 2 to 3 times with nuclease-free tertiary water. […] Finally, after immersing the sample in a 2×SSC solution diluted with nuclease-free tertiary […], a fluorescence image of the sample was acquired using a confocal fluorescence microscope.
# E. faecalis = assay: as above; type: cell-based; details: first microbial group treated and cultured with antibiotics
# Method: as §1, §2, §3, §4
smiles,measurement,setting,value
CO/N=C(\C(=O)N[C@@H]1C(=O)N2C(C(=O)O)=C(COC(C)=O)CS[C@H]12)c1csc(N)n1 [cefotaxime],number of population of E. coli K-12,"E. coli K-12; first microbial group treated and cultured with antibiotics, about 1 hour",rapidly reduced
same,ratio of E. coli and E. faecalis,"E. coli K-12; first microbial group, mixed E. coli and E. faecalis sample treated with antibiotic and cultured for 1 hour",ratio of E. coli and E. faecalis changed
same,growth of E. faecalis,E. faecalis,continued to grow
